Test results taken from the supplement of paper PMC10307832.

Assays:
Assay in all cases: relative viability (nuclei count vs DMSO), 5 days (fraction); higher = more cells survive
Halofuginone + Foretinib = compound: O=C(C[C@H]1NCCC[C@@H]1O)Cn1cnc2cc(Br)c(Cl)cc2c1=O (racemic) [Halofuginone] + COc1cc2c(Oc3ccc(NC(=O)C4(C(=O)Nc5ccc(F)cc5)CC4)cc3F)ccnc2cc1OCCCN1CCOCC1 [Foretinib] (partner 0.25 µM)
How it was run: (§1)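 Cells from lung cancer lines were seeded into 1536-well plates and, one day later, dosed by pin tool. Treatments were either a single drug or a fixed dose of an anchor drug with five library-drug doses (not always all listed) in √10 steps. After 5 days, nuclei were stained in a one-step fixation (final 0.05% Triton X-100, 1% formaldehyde, 1 ug/ml Hoechst) and counted on 4× images, and relative viability is the treated-to-vehicle nuclei ratio, as the median of duplicate plates.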

Cediranib + Olaparib = compound: COc1cc2c(Oc3ccc4[nH]c(C)cc4c3F)ncnc2cc1OCCCN1CCCC1 [Cediranib] + O=C(c1cc(Cc2n[nH]c(=O)c3ccccc23)ccc1F)N1CCN(C(=O)C2CC2)CC1 [Olaparib] (partner 8 µM)
How it was run: as §1

Cediranib + Linsitinib = compound: COc1cc2c(Oc3ccc4[nH]c(C)cc4c3F)ncnc2cc1OCCCN1CCCC1 [Cediranib] + C[C@]1(O)C[C@@H](c2nc(-c3ccc4ccc(-c5ccccc5)nc4c3)c3c(N)nccn32)C1 [Linsitinib] (partner 1 µM)
How it was run: as §1

Halofuginone + Alpelisib = compound: O=C(C[C@H]1NCCC[C@@H]1O)Cn1cnc2cc(Br)c(Cl)cc2c1=O (racemic) [Halofuginone] + Cc1nc(NC(=O)N2CCC[C@H]2C(N)=O)sc1-c1ccnc(C(C)(C)C(F)(F)F)c1 [Alpelisib] (partner 2 µM)
How it was run: as §1

Row | Cell Line | relative viability (Halofuginone + Foretinib; first compound 0.001 µM) | relative viability (Halofuginone + Foretinib; first compound 0.003162 µM) | relative viability (Halofuginone + Foretinib; first compound 0.01 µM) | relative viability (Halofuginone + Foretinib; first compound 0.03162 µM) | relative viability (Halofuginone + Foretinib; first compound 0.1 µM) | relative viability (Cediranib + Olaparib; first compound 0.04 µM) | relative viability (Cediranib + Olaparib; first compound 0.1265 µM) | relative viability (Cediranib + Olaparib; first compound 0.4 µM) | relative viability (Cediranib + Olaparib; first compound 1.265 µM) | relative viability (Cediranib + Olaparib; first compound 4 µM) | relative viability (Cediranib + Linsitinib; first compound 0.04 µM) | relative viability (Cediranib + Linsitinib; first compound 0.1265 µM) | relative viability (Cediranib + Linsitinib; first compound 0.4 µM) | relative viability (Cediranib + Linsitinib; first compound 1.265 µM) | relative viability (Cediranib + Linsitinib; first compound 4 µM) | relative viability (Halofuginone + Alpelisib; first compound 0.001 µM) | relative viability (Halofuginone + Alpelisib; first compound 0.003162 µM) | relative viability (Halofuginone + Alpelisib; first compound 0.01 µM) | relative viability (Halofuginone + Alpelisib; first compound 0.03162 µM) | relative viability (Halofuginone + Alpelisib; first compound 0.1 µM)
1 | NCI-H2228 | 0.908 | 1.08 | 0.777 | 0.325 | 0.146 | 0.801 | 1.02 | 0.642 | 0.707 | 0.556 | 0.873 | 0.955 | 0.8 | 0.536 | 1.03 | 0.797 | 0.877 | 0.762 | 0.399 | 0.151
2 | NCI-H2347 | 1.35 | 0.929 | 0.994 | 0.841 | 1 | 0.571 | 0.675 | 0.59 | 0.577 | 0.619 | 0.979 | 0.86 | 0.919 | 1 | 0.903 | 1.07 | 1.07 | 1.09 | 1.02 | 0.876
3 | NCI-H2405 | 1.11 | 1.1 | 1.03 | 1.02 | 0.888 | 0.888 | 0.897 | 0.766 | 0.888 | 0.876 | 1 | 1.25 | 0.838 | 1.06 | 0.836 | 0.94 | 0.939 | 0.839 | 0.757 | 0.546
4 | NCI-H3122 | 0.931 | 0.946 | 0.963 | 0.96 | 0.987 | 0.702 |  | 0.577 | 0.601 | 0.651 | 1.01 | 1.07 | 0.986 | 1.02 | 1.03 | 0.79 | 0.801 | 0.638 | 0.76 | 0.781
5 | PC-3 [JPC-3] | 1.02 | 1.04 | 0.981 | 0.996 | 1.08 | 1.23 |  | 1.09 | 1.21 | 0.834 | 0.991 | 0.942 | 0.907 | 0.93 | 1.04 | 1.09 | 1.03 | 0.95 | 1.01 | 0.92
6 | PC-14 | 0.937 | 0.977 | 0.859 | 0.903 | 0.8 | 0.348 | 0.23 | 0.261 | 0.258 | 0.377 | 0.935 | 0.986 | 0.905 | 0.897 | 0.965 | 0.985 | 1.01 | 0.878 | 0.724 | 0.428
7 | RERF-LC-KJ | 0.902 | 1.01 | 0.967 | 0.853 | 0.815 | 0.841 | 0.866 | 0.915 | 0.998 | 0.979 | 0.909 | 0.862 | 0.869 | 0.871 | 0.907 | 0.849 | 1.09 | 0.735 | 0.908 | 0.831
8 | SK-LU-1 | 0.921 | 0.8 | 0.753 | 0.759 | 0.406 | 0.617 | 0.488 | 0.426 | 0.462 | 0.497 | 1.18 | 1.04 | 0.979 | 1.06 | 1.07 | 1.14 | 1.13 | 1.02 | 0.888 | 0.247
9 | SK-MES-1 | 1.06 | 1.06 | 0.911 | 0.828 | 0.611 | 0.728 | 0.73 | 0.642 | 0.685 | 0.899 | 1.04 | 1.04 | 1.06 | 0.959 | 1.13 | 0.952 | 1.32 | 0.853 | 0.832 | 0.522
10 | SW 1573 | 0.959 | 1.05 | 0.945 | 0.943 | 0.762 | 0.522 | 0.485 | 0.504 | 0.42 | 0.488 | 0.71 | 0.698 | 0.743 | 0.754 | 0.861 | 0.735 | 0.748 | 0.717 | 0.645 | 0.618
